Patent publication US20060154990A1, “Use of MEK inhibitors in treating abnormal cell growth” (AGOURON PHARMACEUTICALS, INC., priority 2004, published 2006)
Values joined by “and” are separate entries in the source; they are usually repeats but may differ in a detail not shown here. Equal entries are not always repeated.

What was measured:
pERK in C26 tumors = experiment: Tumor pERK inhibition and PK-PD in C26 tumor-bearing mice; type: in vivo; details: C26 tumor-bearing animals
[1] = Metabolites of [14C] Compound 1 in liver microsomes; type: in vitro ADME, human; details: [C-14] Compound 1 10 μM, 90 mins, listed as M 15
Procedure: (§1) Incubations were performed in hepatocytes for 3 hours and liver microsomes for 1.5 hours and were stopped with the addition of methanol. HPLC, in conjuction with ionspray 3D iontrap mass spectrometry, and simultaneous radioactive monitoring were used to detect and identify the resulting metabolites.
(§2) This acid cleavage product is further metabolized to form hydroxylated (M 11, 16% in rat) and hydroxylated, defluorinated products (M 17, 19% in rat).

[2] = Metabolites of [14C] Compound 1 in cryopreserved hepatocytes; type: in vitro ADME, rat; details: [C-14] Compound 1 10 μM, 180 mins
Procedure: as §1
(§3) Metabolite identification of radiolabeled Compound 1 was performed after incubation with rat, dog, monkey and human cryopreserved hepatocytes and liver microsomes. […] Besides glucuronidation, metabolites derived from other clearance pathways are also observed. For instance, M 15 (acid cleavage product) accounts for 11% of the total radioactivity in the human chromatogram.

MEK1 = MEK1 (Homo sapiens, UniProt Q02750); experiment: Cascade assay with raf-1, MEK1 and ERK1 (DELFIA readout); type: biochemical; details: purified MEK1, cascade assay raf-1/MEK1/ERK1; read-out: MEK enzyme IC50
Chain of MEK1 (Q02750 whole entry, species assumed): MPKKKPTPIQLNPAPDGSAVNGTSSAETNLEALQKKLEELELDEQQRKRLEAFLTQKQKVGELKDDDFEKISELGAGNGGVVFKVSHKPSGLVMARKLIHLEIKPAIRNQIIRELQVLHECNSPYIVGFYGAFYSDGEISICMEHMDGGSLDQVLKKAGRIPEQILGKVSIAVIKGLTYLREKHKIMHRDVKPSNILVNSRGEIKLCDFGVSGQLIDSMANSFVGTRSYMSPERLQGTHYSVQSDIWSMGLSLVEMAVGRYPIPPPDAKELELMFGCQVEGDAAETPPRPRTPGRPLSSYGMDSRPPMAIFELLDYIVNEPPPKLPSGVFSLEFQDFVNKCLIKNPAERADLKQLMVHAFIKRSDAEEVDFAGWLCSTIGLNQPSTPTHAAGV

[3] = Metabolites of [14C] Compound 1 in liver microsomes; type: in vitro ADME, dog; details: [C-14] Compound 1 10 μM, 90 mins
Procedure: as §1, §2

[4] = as above; type: in vitro ADME, rat; details: [C-14] Compound 1 10 μM, 90 mins
Procedure: as §1, §2

[5] = tested on: ERK phosphorylation in tumor cells; experiment: ERK phosphorylation in tumor cells grown in culture with 10% serum; type: cell-based; details: tumor cells in culture, 10% serum; read-out: IC50, reducing ERK phosphorylation
[6] = Metabolites of [14C] Compound 1 in cryopreserved hepatocytes; type: in vitro ADME, dog; details: [C-14] Compound 1 10 μM, 180 mins
Procedure: as §1, §3

[7] = as above; type: in vitro ADME, human; details: [C-14] Compound 1 10 μM, 180 mins, listed as M 15
Procedure: as §1, §3

[8] = Plasma pharmacokinetics after multiple oral doses in advanced cancer patients; details: for AUC of Compound 2 as % of the parent (median): human plasma
Procedure: Pharmacokinetic data are presented for the first 38 subjects.
Blood samples were collected from patients into a purple-top potassium EDTA Vacutainer tube. Following mixing with gentle inversion (8-10 times), tubes were centrifuged within 20 minutes at 1000×g for 15 minutes, to harvest plasma. Plasma samples were stored at −20° C. until analysis.
The following results are based on preliminary pharmacokinetic parameters from the 38 subjects, estimated using nominal collection times and quality-controlled, non quality-assured bioanalytical data. Pharmacokinetic parameters were determined by the non-compartmental method using WINNONLIN Professional Edition (Version 4.1). […] The maximum observed concentration (Cmax) was obtained by inspection of the concentration data. The time to reach the Cmax was the first time at which Cmax is observed and obtained by inspection of the data. The pre-dose concentration (Ctrough) was obtained by inspection of the concentration data.

[9] = Metabolites of [14C] Compound 1 in liver microsomes; type: in vitro ADME, monkey; details: [C-14] Compound 1 10 μM, 90 mins
Procedure: as §1, §2

[10] = Metabolites of [14C] Compound 1 in cryopreserved hepatocytes; type: in vitro ADME, monkey; details: [C-14] Compound 1 10 μM, 180 mins
Procedure: as §1, §3

[11] = tested on: ERK phosphorylation in colon 26 cells; experiment: cells; details: Mus musculus, Colon 26, read-out: Cellular activity IC50

SMILES	target suppression of pERK in tumors (pERK in C26 tumors; 2 hours after 75 mg/kg IV)	pERK activity in tumors (pERK in C26 tumors; 24 hours after 75 mg/kg IV)	% ROI Human [1]	% ROI Rat [2]	IC50 (MEK1)	% ROI Dog [3]	% ROI Rat [4]	IC50 [5]	% ROI Dog [6]	% ROI Human [7]	increase of AUC of Compound 2 ([8]; after 21-day multiple BID dosing of Compound 1)	AUC of Compound 2 as % of the parent (median) ([8]; multiple dosing of Compound 1)	AUC of Compound 2 as % of the parent (median) ([8]; single dosing of Compound 1)	terminal plasma half-life compared with parent ([8]; patients, after oral Compound 1)	% ROI Monkey [9]	% ROI Monkey [10]	IC50 [11]
O=C(O)c1ccc(F)c(F)c1Nc1ccc(I)cc1F [Compound 2]	98%	returned to control levels	9% and 8.73%	4.31%	66 nM	4.12%	1.86%	1300 nM	2.46%	11% and 11.07%	2.0-5.0 fold	~120%	approximately 66%	longer than that of the parent drug	5.24%	1.72%	
O=C(NOC[C@@H](O)CO)c1ccc(F)c(F)c1Nc1ccc(I)cc1F [Compound 3]																	0.83 nM
